Measured values taken from patent US20260152503A1, “SPIROBICYCLIC COMPOUNDS” (ACERAND THERAPEUTICS (HONG KONG) LIMITED, priority 2022, published 2026).

Tests used:
Type in all cases: cell-based
FGFR2 = biological target: T1, FGFR2 (Homo sapiens, UniProt P21802, K310R/N549K); experiment: pERK potency assay (In Cell ELISA), AN3CA cells; details: for IC50: pERK, AN3CA (FGFR2/k310R, N549K) cells, 3 hours; for FGFR1 IC50/FGFR2 IC50 / FGFR3 IC50/FGFR2 IC50: selectivity ratio, pERK potency; for FGFR1 IC50/FGFR2 IC50: FGFR2 relative to FGFR1; for FGFR3 IC50/FGFR2 IC50: FGFR2 relative to FGFR3
T1 construct: in FGFR aberrations of AN3CA (FGFR2/k310R, N549K); host or cells: AN3CA
T1 sequence (P21802 22-821 K310R/N549K): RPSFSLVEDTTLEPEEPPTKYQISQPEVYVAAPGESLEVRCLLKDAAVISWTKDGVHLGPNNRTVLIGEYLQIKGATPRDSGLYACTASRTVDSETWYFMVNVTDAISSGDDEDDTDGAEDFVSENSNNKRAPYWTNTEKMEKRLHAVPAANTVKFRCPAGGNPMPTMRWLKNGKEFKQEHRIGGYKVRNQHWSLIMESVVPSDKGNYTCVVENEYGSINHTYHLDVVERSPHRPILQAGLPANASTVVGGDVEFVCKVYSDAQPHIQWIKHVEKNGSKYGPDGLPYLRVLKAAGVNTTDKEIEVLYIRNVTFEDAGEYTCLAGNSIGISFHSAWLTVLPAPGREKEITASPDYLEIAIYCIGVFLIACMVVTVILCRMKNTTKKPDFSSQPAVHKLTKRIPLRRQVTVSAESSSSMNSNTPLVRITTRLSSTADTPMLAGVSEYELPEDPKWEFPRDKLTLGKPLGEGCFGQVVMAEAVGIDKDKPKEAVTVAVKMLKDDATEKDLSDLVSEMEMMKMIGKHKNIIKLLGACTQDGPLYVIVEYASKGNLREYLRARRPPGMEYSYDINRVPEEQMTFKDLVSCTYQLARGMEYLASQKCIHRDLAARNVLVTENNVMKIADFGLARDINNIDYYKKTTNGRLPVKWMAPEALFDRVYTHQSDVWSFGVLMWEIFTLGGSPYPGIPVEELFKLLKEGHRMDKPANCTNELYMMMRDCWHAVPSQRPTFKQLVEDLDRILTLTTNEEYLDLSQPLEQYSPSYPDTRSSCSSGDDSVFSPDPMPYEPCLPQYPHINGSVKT
Source text: (§1) The purpose of this assay is to measure the ability of test compounds to inhibit FGFR mediated downstream signaling cascades, i.e., ERK phosphorylation in cells with FGFR aberrations. FGFR aberrations become constitutively active and thus induces cascades of cellular signaling events that result in increased phosphorylation of ERK at Threonine 202 and Tyrosine 204 (pERK). The procedure called In Cell ELISA described below measures the level of cellular pERK in response to FGFR specific inhibitor compounds in FGFR aberrations of AN3CA (FGFR2/k310R, N549K), DMS114 (FGFR1 amplification), RT112 (FGFR3 overexpression/FGFR3-TACC3 fusion) and Hep3B (FGF19 amplification) cells. AN3CA, DMS114 and Hep3B cells are from ATCC. RT112 cells are from Sigma. DMS114 cells are grown and maintained using RPMI-1640 medium supplemented with 10% heat-inactivated fetal bovine serum. AN3CA, Hep3B and RT112 cells are grown and maintained using DMEM supplemented with 10% heat-inactivated fetal bovine serum. On the day before test compound addition, cells are plated in poly-D-lysine coated 96-well cell culture plates (Corning® BioCoat® Cat #356640) at 40000 cells/well/100 μL and grown overnight in a 37° C., 5% CO2 incubator. Test compounds are prepared with 4-fold serial dilutions in DMSO, with a top concentration of 10 μM. On the day of the assay, 50 μL of test compound diluted in media was added to each well of cell culture plate with the final concentration of compounds spanning from 0.000038 μM to 10 μM. After compound addition, cells are incubated for 3 hours at 37° C., 5% CO2 and then the culture medium is removed. Cells are fixed with 4% formaldehyde in phosphate-buffered saline (PBS) and incubated at RT for 20 min. The plate is then washed three times with PBST (PBS with 0.05% tween-20), followed by the incubation with 100 μL of pre-cooled methanol at −20° C. for 20 min. After incubation, methanol is removed, and the plate is washed once with PBST. Cells are permeabilized with 100 µL/well of 0.1% Triton X-100 in PBS at RT for 20 min and then quenched with quenching buffer (PBST containing 1% H2O2 and 0.1% sodium azide) for 20 min at RT with gentle shaking. After washing once with PBST, blocking buffer (250 ul/well, Pierce™ Protein-Free-PBS Blocking Buffer, Cat #37572) was then added to the cells for 1-h incubation at RT, followed by anti-pERK antibody (cell signaling, 1:1000 dilution in 5% BSA in PBST) incubation overnight at 4° C. and secondary antibody-HRP (Jackson immunoresearch, 1:3000 dilution in 5% BSA in PBST) incubation at RT for 1 h. PBST wash is carried out after each step three times. Before the addition of the substrate (Advansta ELISABright), the plate is washed with PBS twice to remove detergent residues. Cellular pERK level is determined using the microplate reader (Biotek Synergy H1) to detect the chemiluminescence signal. IC50 is determined by fitting a 4-parameter sigmoidal concentration-response model. FGFR wild type cells (H1975, PC-9 and AGS) are used to serve as negative control (FGFR selectivity) with the same assay procedures described above.

FGFR1 = biological target: T2, FGFR1 (Homo sapiens, UniProt P11362); experiment: pERK potency assay (In Cell ELISA), DMS114 cells; details: DMS114 (FGFR1 amplification) cells, 3 hours
T2 construct: DMS114 (FGFR1 amplification); host or cells: DMS114
T2 sequence (P11362 22-822): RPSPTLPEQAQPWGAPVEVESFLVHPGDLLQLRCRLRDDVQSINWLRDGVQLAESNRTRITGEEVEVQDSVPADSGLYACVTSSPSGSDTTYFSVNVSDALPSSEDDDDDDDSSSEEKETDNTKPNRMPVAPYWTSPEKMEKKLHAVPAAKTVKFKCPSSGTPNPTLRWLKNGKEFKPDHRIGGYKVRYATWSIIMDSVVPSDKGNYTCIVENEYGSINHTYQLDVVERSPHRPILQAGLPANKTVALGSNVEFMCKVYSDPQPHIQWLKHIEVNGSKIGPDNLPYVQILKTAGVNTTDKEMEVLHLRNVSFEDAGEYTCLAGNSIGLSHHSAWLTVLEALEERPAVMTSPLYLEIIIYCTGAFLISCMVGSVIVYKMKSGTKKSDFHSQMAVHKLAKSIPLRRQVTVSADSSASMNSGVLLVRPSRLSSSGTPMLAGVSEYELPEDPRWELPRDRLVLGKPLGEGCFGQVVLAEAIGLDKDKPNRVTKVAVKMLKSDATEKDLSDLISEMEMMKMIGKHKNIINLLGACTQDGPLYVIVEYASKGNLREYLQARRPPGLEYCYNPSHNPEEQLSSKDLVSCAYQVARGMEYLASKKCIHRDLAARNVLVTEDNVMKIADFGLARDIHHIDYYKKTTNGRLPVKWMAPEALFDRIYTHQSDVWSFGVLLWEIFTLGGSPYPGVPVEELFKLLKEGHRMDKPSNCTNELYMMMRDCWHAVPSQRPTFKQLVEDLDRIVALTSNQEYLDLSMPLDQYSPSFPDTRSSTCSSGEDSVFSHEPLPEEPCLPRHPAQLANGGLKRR
Source text: as §1

FGFR3 = biological target: T3, FGFR3 (Homo sapiens, UniProt P22607); experiment: pERK potency assay (In Cell ELISA), RT112 cells; details: RT112 (FGFR3 overexpression/FGFR3-TACC3 fusion) cells, 3 hours
T3 construct: RT112 (FGFR3 overexpression/FGFR3-TACC3 fusion); host or cells: RT112; the other entry of the earlier key: TACC3 (Q9Y6A5, Transforming acidic coiled-coil-containing protein 3)
Source text: as §1

| Structure (SMILES) | IC50 (FGFR2) [nM] | FGFR1 IC50/FGFR2 IC50 (FGFR2) | FGFR3 IC50/FGFR2 IC50 (FGFR2) | IC50 (FGFR1) [nM] | IC50 (FGFR3) [nM] | FGFR3 IC50/FGFR2 IC50 (FGFR2; given as numeric bound) |
| --- | --- | --- | --- | --- | --- | --- |
| C=CC(=O)N1CC2(CC=C(c3c(-c4ccc(Oc5ncccn5)cc4)c4c(N)ncnc4n3C)CC2)C1 [Example 1, 1-(7-(4-amino-7-methyl-5-(4-(pyrimidin-2-yloxy)phenyl)-7H-pyrrolo[2,3-d]pyrimidin-6-yl)-2-azaspiro[3.5]non-6-en-2-yl)prop-2-en-1-one] | 1 to 10 | I (a selectivity ratio greater than 1000 but less than or equal to 2000) | F (a selectivity ratio greater than 50 but less than or equal to 150) | > 100 | > 100 | – |
| C=CC(=O)N1CC2(CC(c3c(-c4ccc(Oc5ncccn5)cc4)c4c(N)ncnc4n3C)C2)C1 [Example 3, 1-(6-(4-amino-7-methyl-5-(4-(pyrimidin-2-yloxy)phenyl)-7H-pyrrolo[2,3-d]pyrimidin-6-yl)-2-azaspiro[3.3]heptan-2-yl)prop-2-en-1-one] | > 100 | – | – | > 100 | > 100 | – |
| C=CC(=O)N1CCC2(CCC(c3c(-c4ccc(Oc5ncccn5)cc4)c4c(N)ncnc4n3C)CC2)CC1 [Example 6, 1-(9-(4-amino-7-methyl-5-(4-(pyrimidin-2-yloxy)phenyl)-7H-pyrrolo[2,3-d]pyrimidin-6-yl)-3-azaspiro[5.5]undecan-3-yl)prop-2-en-1-one] | > 100 | – | – | > 100 | > 100 | – |
| C=CC(=O)NC1CC2(CC=C(c3c(-c4ccc(OC)cc4)c4c(N)ncnc4n3C)CC2)C1 (centres unmarked) [Example 7, N-(7-(4-amino-5-(4-methoxyphenyl)-7-methyl-7H-pyrrolo[2,3-d]pyrimidin-6-yl)spiro[3.5]non-6-en-2-yl)acrylamide] | 10 to 30 | – | – | > 100 | > 100 | – |
| C=CC(=O)NC1CC2(CC=C(c3c(-c4ccc(Oc5ncccn5)cc4)c4c(N)ncnc4n3C)CC2)C1 (centres unmarked) [Example 9, N-(7-(4-amino-7-methyl-5-(4-(pyrimidin-2-yloxy)phenyl)-7H-pyrrolo[2,3-d]pyrimidin-6-yl)spiro[3.5]non-6-en-2-yl)acrylamide] | 10 to 30 | F (a selectivity ratio greater than 50 but less than or equal to 150) | – | > 100 | > 100 | <50 |
| C=CC(=O)N1CCC2(CC=C(c3c(-c4cccnc4)c4c(N)ncnc4n3C)CC2)CC1 [Example 12, 1-(9-(4-amino-7-methyl-5-(pyridin-3-yl)-7H-pyrrolo[2,3-d]pyrimidin-6-yl)-3-azaspiro[5.5]undec-8-en-3-yl)prop-2-en-1-one] | 10 to 30 | G (a selectivity ratio greater than 150 but less than or equal to 500) | H (a selectivity ratio greater than 500 but less than or equal to 1000) | > 100 | > 100 | – |
| C=CC(=O)N1CCC2(CC=C(c3c(-c4ccnn4C)c4c(N)ncnc4n3C)CC2)CC1 [Example 13, 1-(9-(4-amino-7-methyl-5-(1-methyl-1H-pyrazol-5-yl)-7H-pyrrolo[2,3-d]pyrimidin-6-yl)-3-azaspiro[5.5]undec-8-en-3-yl)prop-2-en-1-one] | > 100 | – | – | > 100 | > 100 | – |
| C=CC(=O)N1CCC2(CC=C(c3c(C(C)C)c4c(N)ncnc4n3C)CC2)CC1 [Example 15, 1-(9-(4-amino-5-isopropyl-7-methyl-7H-pyrrolo[2,3-d]pyrimidin-6-yl)-3-azaspiro[5.5]undec-8-en-3-yl)prop-2-en-1-one] | 10 to 30 | – | F (a selectivity ratio greater than 50 but less than or equal to 150) | > 100 | > 100 | – |
| C=CC(=O)N1CCC2(CC=C(c3c(-c4ccc(OCCN5CCCC5)cc4)c4c(N)ncnc4n3C)CC2)CC1 [Example 20, 1-(9-(4-amino-7-methyl-5-(4-(2-(pyrrolidin-1-yl)ethoxy)phenyl)-7H-pyrrolo[2,3-d]pyrimidin-6-yl)-3-azaspiro[5.5]undec-8-en-3-yl)prop-2-en-1-one] | 30 to 100 | – | F (a selectivity ratio greater than 50 but less than or equal to 150) | > 100 | > 100 | – |
| C=CC(=O)N1CCC2(CC=C(c3c(-c4ccc(OC5CC(C)C5)nc4)c4c(N)ncnc4n3C)CC2)CC1 (centres unmarked) [Example 25, 1-(9-(4-amino-7-methyl-5-(6-(3-methylcyclobutoxy)pyridin-3-yl)-7H-pyrrolo[2,3-d]pyrimidin-6-yl)-3-azaspiro[5.5]undec-8-en-3-yl)prop-2-en-1-one] | 1 to 10 | – | F (a selectivity ratio greater than 50 but less than or equal to 150) | 30 to 100 | > 100 | – |
| C=CC(=O)N1CCC2(CC=C(c3c(-c4cncc(F)c4)c4c(N)ncnc4n3C)CC2)CC1 [Example 27, 1-(9-(4-amino-5-(5-fluoropyridin-3-yl)-7-methyl-7H-pyrrolo[2,3-d]pyrimidin-6-yl)-3-azaspiro[5.5]undec-8-en-3-yl)prop-2-en-1-one] | 1 to 10 | F (a selectivity ratio greater than 50 but less than or equal to 150) | H (a selectivity ratio greater than 500 but less than or equal to 1000) | > 100 | > 100 | – |
| C=CC(=O)N1CCC2(CC=C(c3c(-c4ccc(OC)nc4)c4c(N)ncnc4n3C)CC2)CC1 [Example 30, 1-(9-(4-amino-5-(6-methoxypyridin-3-yl)-7-methyl-7H-pyrrolo[2,3-d]pyrimidin-6-yl)-3-azaspiro[5.5]undec-8-en-3-yl)prop-2-en-1-one] | ≤ 1 | G (a selectivity ratio greater than 150 but less than or equal to 500) | H (a selectivity ratio greater than 500 but less than or equal to 1000) | > 100 | > 100 | – |
| C=CC(=O)N1CCC2(CC=C(c3c(-c4ccnnc4)c4c(N)ncnc4n3C)CC2)CC1 [Example 31, 1-(9-(4-amino-7-methyl-5-(pyridazin-4-yl)-7H-pyrrolo[2,3-d]pyrimidin-6-yl)-3-azaspiro[5.5]undec-8-en-3-yl)prop-2-en-1-one] | > 100 | – | – | > 100 | > 100 | – |
| C=CC(=O)N1CCC2(CC=C(c3c(-c4cncnc4)c4c(N)ncnc4n3C)CC2)CC1 [Example 32, 1-(9-(4-amino-7-methyl-5-(pyrimidin-5-yl)-7H-pyrrolo[2,3-d]pyrimidin-6-yl)-3-azaspiro[5.5]undec-8-en-3-yl)prop-2-en-1-one] | 30 to 100 | F (a selectivity ratio greater than 50 but less than or equal to 150) | G (a selectivity ratio greater than 150 but less than or equal to 500) | > 100 | > 100 | – |
| C=CC(=O)N1CCC2(CC=C(c3c(-c4ncccn4)c4c(N)ncnc4n3C)CC2)CC1(C)C (centres unmarked) [Example 34, 1-(9-(4-amino-7-methyl-5-(pyrimidin-2-yl)-7H-pyrrolo[2,3-d]pyrimidin-6-yl)-2,2-dimethyl-3-azaspiro[5.5]undec-8-en-3-yl)prop-2-en-1-one] | 1 to 10 | H (a selectivity ratio greater than 500 but less than or equal to 1000) | J (a selectivity ratio greater than 2000) | > 100 | > 100 | – |
